Measurements from ChEMBL document CHEMBL1201862, “PubChem BioAssay data set” (2004).
Activity calls are given as the source filed them.

What was measured:
[1] = non-specific cell cytotoxicity, dose response, cytotoxicity control for PAX8 inhibitor project, plate reader, dry powder samples (AID 743021); assay type: functional, cell-based
[2] = NIH:OVCAR-3 ovarian cancer cell cytotoxicity, dose response, PAX8 inhibitor project, plate reader, dry powder samples (AID 743044); assay type: functional, cell-based
[3] = molecular target: Paired box protein Pax-8 (Homo sapiens, UniProt Q06710); assay: inhibitors of PAX8-driven TPO luciferase reporter, dose response, RMG-I cells, cherry-pick (AID 687027); assay type: functional, cell-based;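 further: luciferase reporter driven by Pax8 target thyroperoxidase promoter measured by SteadyGlo luminescence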
[4] = inhibitors of CMV-promoter luciferase reporter, dose response, counter-screen for Pax8 inhibitor project, cell-based, HEK293, luminescence, dry powder (AID 743020); assay type: functional
[5] = IGROV1 ovarian cancer cell cytotoxicity, dose response, PAX8 inhibitor project, plate reader, dry powder samples (AID 743043); assay type: functional, cell-based; conditions: IGROV-1
[6] = inhibitors of intracellular T. cruzi replication, confirmation, NIH3T3 host cells, beta-gal luminescence (AID 2044); assay type: functional, cell-based;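 further: intracellular parasites grown in NIH/3T3 mouse fibroblasts as host cells; luminescent beta-galactosidase reporter signal from transgenic T. cruzi replicating inside host cells; inhibitors lower the luminescence signal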
[7] = molecular target: Arf-GAP with SH3 domain, ANK repeat and PH domain-containing protein 1 (Homo sapiens, UniProt Q9ULH1); assay type: functional;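 further: biochemical fluorescence polarization dose–response screen measuring inhibition of ASAP1; ASAP1 GAP domain stimulating GTP hydrolysis by truncated human ARF1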
[8] = cytotoxicity toward NIH3T3 fibroblasts, dose response, counter-screen, cell-based, ATP luminescence, mouse fibroblasts (AID 2010); assay type: functional;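 further: cells exposed to compound for about 90 hours before reading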
[9] = inhibitors of LMP1-driven NF-kB reporter, dose response, cell-based, EBV LMP1, luciferase, dry powder, set 2 (AID 624361); assay type: functional
[10] = LMP1-driven NF-kB reporter inhibition, dose response, cell-based, luciferase reporter, luminescence, dry powder, set 2 (AID 624376); assay type: functional
[11] = molecular target: T1, Carboxy-terminal domain RNA polymerase II polypeptide A small phosphatase 1 (Homo sapiens, UniProt Q9GZU7); assay: inhibitors of CTDSP1, concentration-response testing, biochemical assay, absorbance-based, actives from ultra-high-throughput screening (AID 540297); assay type: functional
T1 sequence (Q9GZU7 whole entry): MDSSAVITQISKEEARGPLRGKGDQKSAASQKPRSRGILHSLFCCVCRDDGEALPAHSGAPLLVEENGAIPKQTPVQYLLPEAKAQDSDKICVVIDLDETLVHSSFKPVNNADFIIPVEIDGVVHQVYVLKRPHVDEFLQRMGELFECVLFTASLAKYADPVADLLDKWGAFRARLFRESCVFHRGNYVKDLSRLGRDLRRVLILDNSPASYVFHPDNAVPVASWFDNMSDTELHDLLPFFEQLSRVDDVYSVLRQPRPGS

[12] = molecular target: 1-phosphatidylinositol 4,5-bisphosphate phosphodiesterase gamma-1 (Homo sapiens, UniProt P19174); assay: Counterscreen for inhibitors of phospholipase C isozymes (PLC-B3): Fluorescence-based biochemical high throughput dose response assay to identify inhibitors of phospholipase C isozymes (PLC-gamma1).
[13] = molecular target: 1-phosphatidylinositol 4,5-bisphosphate phosphodiesterase beta-3 (Homo sapiens, UniProt Q01970); assay: Fluorescence-based biochemical high throughput dose response assay to identify inhibitors of phospholipase C isozymes (PLC-B3).
[14] = HEK293 cell cytotoxicity, dose response, cytotoxicity control, plate reader, cherry-picked samples (AID 743446); assay type: functional, cell-based
[15] = MC4R antagonists, dose response, counter-screen for LGR2 antagonist project, cell-based, plate reader, cherry pick (AID 743444); assay type: functional;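 further: transfected HEK 293 cells stimulated with alpha-MSH peptide; potency of inhibitors of the alpha-MSH evoked signal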
[16] = HepG2 cell cytotoxicity, dose response, cytotoxicity control for Shn3 inhibitor project, CellTiter-Glo, cherry-picked (AID 624134); assay type: functional, cell-based
[17] = cytotoxicity in HEK-293T cells, dose response, cytotoxicity control for TCR NF-kB inhibitor project, luminescence, T-cell screen hits (AID 489026); assay type: functional, cell-based;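 further: cells exposed to compound about 14 hours before the viability readout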
[18] = HepG2 cell cytotoxicity, dose response, cytotoxicity control, plate reader, cherry-pick, antagonist series (AID 743416); assay type: functional, cell-based
[19] = LGR2 antagonists, dose response, cell-based, HEK293, CRE-luciferase reporter, cherry pick, set 2 (AID 743343); assay type: functional;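 further: transfected cells were stimulated with diluted bursicon conditioned medium after compound addition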
[20] = reduction of Shn3 3'UTR firefly luciferase signal, dose response, Schnurri-3 inhibitor project, cell-based, Clone20 osteoblasts, cherry-pick, set 2 (AID 720490); assay type: functional;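 further: actives lower the luminescence signal as inhibitors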
[21] = molecular target: T2, Heat shock factor protein 1 (Mus musculus, UniProt P38532); assay: inhibition of MG132-induced HSE-luciferase signal, confirmation, cell-based, NIH3T3, luminescence, dose retest (AID 2382); assay type: functional;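 further: NIH3T3 fibroblasts with HSF1-driven luciferase reporter stressed by proteasome inhibitor MG132; luminescence from HSF1-driven luciferase expression after 8 hours of MG132 stress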
T2 sequence (P38532 whole entry): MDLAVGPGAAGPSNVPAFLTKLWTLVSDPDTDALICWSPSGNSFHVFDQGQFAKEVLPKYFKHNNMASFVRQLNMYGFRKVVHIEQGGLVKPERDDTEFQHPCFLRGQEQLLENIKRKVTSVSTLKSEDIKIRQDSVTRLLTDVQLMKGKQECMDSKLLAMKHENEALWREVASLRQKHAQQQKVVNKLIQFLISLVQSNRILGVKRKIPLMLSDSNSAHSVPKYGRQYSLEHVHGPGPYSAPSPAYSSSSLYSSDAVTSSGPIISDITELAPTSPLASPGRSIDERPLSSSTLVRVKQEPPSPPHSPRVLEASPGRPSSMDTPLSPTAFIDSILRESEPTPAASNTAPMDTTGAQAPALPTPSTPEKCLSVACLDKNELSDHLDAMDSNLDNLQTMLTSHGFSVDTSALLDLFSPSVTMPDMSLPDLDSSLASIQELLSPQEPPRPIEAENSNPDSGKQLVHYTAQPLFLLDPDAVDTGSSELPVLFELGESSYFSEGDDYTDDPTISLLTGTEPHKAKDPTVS

[22] = Shn3 3'UTR reporter inhibitors, dose response, cell-based, Clone20 osteoblasts, firefly luciferase, cherry-picked (AID 624132); assay type: functional;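 further: firefly luciferase luminescence from reporter carrying the Shn3 3'UTR in osteoblasts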
[23] = molecular target: Peroxisome proliferator-activated receptor gamma/Nuclear receptor corepressor 2 (Homo sapiens, UniProt P37231+Q9Y618); assay: Counterscreen for NR2E3 inverse agonists: TR-FRET-based biochemical high throughput dose response assay to identify inverse agonists of the interaction between peroxisome proliferator-activated receptor gamma (PPARg) and nuclear receptor co-repressor 2 (NCOR2).; assay type: functional
[24] = human group III sPLA2 inhibitors, dose response, biochemical, QFRET, IC50 (AID 743457);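 further: green fluorescence rise as the enzyme cleaves BODIPY PC-A2 in liposomes; potency for inhibition of the enzyme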
[25] = molecular target: Photoreceptor-specific nuclear receptor (Homo sapiens, UniProt Q9Y5X4); assay: NR2E3 inverse agonists, dose response, biochemical, TR-FRET (AID 463256); assay type: functional
[26] = T. cruzi intracellular amastigote growth inhibition, dose response, imaging, CA-I/72 strain, bovine embryo skeletal muscle, dry powder (AID 651885); assay type: functional, cell-based
[27] = T. cruzi growth inhibition in host cells, dose response, cell-based, plate reader, dry powder, set 2 (AID 652275); assay type: functional
[28] = NIH/3T3 fibroblast cytotoxicity, dose response, cytotoxicity control, cell-based, plate reader, dry powder, set 2 (AID 652280); assay type: functional; conditions: NIH3T3
[29] = molecular target: T3, Fatty acid synthase (Homo sapiens, UniProt P49327); assay: FAS thioesterase domain inhibitors, dose response, biochemical, kinetic fluorescence intensity (AID 624326); assay type: functional;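 further: rate of fluorescence rise from hydrolysis of a fluorogenic O-methyl fluorescein ester substrate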
[30] = molecular target: T3, Fatty acid synthase; assay: FAS thioesterase domain inhibitors, dose response, biochemical, endpoint fluorescence intensity, uHTS hits (AID 624327); assay type: functional;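 further: fluorescence from hydrolysis of an O-methyl fluorescein acyl ester substrate by the enzyme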
[31] = molecular target: Matrix metalloproteinase-14 (Homo sapiens, UniProt P50281); assay: Dose Response confirmation of uHTS hits for a small molecule inhibitors of MT1-MMP activation in a fluorescence assay set 1.; assay type: functional
[32] = molecular target: Nonstructural protein 1 (Influenza A virus, UniProt Q194T2); assay type: functional, Influenza A virus (A/California/07/2009(H1N1))
[33] = system: HeLa; assay: HeLa cell cytotoxicity, dose response, cytotoxicity control, ATP luminescence, cherry-pick samples (AID 687004); assay type: functional, cell-based; conditions: Homo sapiens
[34] = molecular target: Beta-galactosidase (Escherichia coli, UniProt Q8VNN2); assay: Dose response counterscreen for EBI2 assay utilizing the enzyme, b-galactosidase.; assay type: functional
[35] = HepG2 cell cytotoxicity, dose response, cytotoxicity control, cherry-picks, set 5 (AID 1053118); assay type: functional, cell-based
[36] = P. falciparum Dd2 growth inhibitors, dose response, SYBR Green, cherry-picked samples (AID 1159567); assay type: functional, cell-based
[37] = HEK293 cell cytotoxicity, dose response, cytotoxicity control, cherry-picks, set 5 (AID 1053117); assay type: functional, cell-based
[38] = HepG2 cell cytotoxicity, dose response, cytotoxicity control, cherry-picked samples (AID 1159577); assay type: functional, cell-based
[39] = A549 cell cytotoxicity, dose response, cytotoxicity control, cherry-picks, 26 µM top dose (AID 1053119); assay type: functional, cell-based

Chain of Paired box protein Pax-8 (Q06710 whole entry): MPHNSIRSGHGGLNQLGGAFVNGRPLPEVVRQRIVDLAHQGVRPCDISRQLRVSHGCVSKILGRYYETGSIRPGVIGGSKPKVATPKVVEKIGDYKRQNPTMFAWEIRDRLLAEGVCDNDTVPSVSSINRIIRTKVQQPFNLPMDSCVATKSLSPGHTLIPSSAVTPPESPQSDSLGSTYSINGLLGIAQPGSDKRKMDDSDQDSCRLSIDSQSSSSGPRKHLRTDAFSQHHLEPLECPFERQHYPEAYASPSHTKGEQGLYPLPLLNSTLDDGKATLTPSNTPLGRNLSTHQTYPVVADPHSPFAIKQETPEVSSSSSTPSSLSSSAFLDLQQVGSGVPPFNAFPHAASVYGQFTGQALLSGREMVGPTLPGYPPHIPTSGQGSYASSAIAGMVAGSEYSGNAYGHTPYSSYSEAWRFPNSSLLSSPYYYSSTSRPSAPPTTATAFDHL
T3 sequence (P49327 whole entry, the tested form may be a part): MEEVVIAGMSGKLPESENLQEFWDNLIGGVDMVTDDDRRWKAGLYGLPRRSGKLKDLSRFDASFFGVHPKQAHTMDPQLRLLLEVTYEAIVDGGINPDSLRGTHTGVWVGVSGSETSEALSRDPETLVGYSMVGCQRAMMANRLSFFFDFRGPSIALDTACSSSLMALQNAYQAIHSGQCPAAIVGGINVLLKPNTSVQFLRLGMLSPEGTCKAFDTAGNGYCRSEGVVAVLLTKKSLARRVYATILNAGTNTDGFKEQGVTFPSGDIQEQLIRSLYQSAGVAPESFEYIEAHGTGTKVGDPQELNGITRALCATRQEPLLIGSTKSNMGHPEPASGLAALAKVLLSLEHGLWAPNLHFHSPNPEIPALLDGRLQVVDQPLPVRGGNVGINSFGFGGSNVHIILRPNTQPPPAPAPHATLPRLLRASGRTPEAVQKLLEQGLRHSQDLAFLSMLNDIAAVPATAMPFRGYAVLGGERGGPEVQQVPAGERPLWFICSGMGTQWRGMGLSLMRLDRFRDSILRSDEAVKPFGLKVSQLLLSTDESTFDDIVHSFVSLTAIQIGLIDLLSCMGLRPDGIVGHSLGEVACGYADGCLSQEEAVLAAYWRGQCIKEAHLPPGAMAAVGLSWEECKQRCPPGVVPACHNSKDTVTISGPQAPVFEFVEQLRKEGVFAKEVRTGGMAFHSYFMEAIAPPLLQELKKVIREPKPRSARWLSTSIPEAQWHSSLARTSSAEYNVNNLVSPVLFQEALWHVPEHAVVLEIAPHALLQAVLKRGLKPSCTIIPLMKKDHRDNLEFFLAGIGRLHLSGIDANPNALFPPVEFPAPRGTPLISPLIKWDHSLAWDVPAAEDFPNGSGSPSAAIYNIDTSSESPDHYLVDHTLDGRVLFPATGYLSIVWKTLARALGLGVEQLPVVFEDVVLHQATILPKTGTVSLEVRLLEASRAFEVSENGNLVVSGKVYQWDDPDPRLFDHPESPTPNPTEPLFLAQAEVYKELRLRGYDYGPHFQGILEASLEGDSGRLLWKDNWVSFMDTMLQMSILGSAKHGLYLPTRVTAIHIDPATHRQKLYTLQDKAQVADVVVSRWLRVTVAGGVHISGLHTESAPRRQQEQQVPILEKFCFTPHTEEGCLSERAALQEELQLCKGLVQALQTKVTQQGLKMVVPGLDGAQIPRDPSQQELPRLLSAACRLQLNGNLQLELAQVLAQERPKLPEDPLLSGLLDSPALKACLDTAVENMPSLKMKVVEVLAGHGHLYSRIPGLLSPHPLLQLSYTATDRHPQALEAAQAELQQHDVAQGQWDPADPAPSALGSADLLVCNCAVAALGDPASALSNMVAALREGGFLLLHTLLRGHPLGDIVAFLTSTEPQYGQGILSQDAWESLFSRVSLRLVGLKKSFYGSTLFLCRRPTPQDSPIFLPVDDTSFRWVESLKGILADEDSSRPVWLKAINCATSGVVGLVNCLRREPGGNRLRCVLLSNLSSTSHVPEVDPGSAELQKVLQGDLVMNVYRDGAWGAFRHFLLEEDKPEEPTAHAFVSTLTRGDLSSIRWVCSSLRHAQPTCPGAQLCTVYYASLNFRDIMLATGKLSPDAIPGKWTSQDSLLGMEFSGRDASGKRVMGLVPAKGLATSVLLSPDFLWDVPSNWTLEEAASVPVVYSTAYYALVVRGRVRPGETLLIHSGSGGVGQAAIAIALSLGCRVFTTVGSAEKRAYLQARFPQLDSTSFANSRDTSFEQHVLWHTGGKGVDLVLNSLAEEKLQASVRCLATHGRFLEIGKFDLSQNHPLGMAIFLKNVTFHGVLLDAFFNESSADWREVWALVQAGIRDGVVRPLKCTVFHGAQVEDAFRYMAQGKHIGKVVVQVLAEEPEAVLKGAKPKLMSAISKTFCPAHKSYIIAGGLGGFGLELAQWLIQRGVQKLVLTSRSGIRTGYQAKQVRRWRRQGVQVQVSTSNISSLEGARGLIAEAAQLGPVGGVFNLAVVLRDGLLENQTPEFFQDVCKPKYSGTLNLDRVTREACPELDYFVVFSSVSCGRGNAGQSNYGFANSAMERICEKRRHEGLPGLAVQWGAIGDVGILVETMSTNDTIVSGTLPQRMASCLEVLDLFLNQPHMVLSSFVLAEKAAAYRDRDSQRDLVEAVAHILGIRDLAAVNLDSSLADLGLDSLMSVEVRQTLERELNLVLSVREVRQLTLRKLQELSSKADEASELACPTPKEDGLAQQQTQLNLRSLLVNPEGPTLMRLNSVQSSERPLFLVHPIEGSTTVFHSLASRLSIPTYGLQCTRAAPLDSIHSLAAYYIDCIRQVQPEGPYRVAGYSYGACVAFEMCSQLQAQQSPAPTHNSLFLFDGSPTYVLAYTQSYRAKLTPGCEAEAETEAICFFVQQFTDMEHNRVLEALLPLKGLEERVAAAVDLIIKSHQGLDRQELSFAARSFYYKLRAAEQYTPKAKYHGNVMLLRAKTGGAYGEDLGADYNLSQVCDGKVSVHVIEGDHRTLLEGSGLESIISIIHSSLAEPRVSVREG
Chain of Photoreceptor-specific nuclear receptor (Q9Y5X4 whole entry): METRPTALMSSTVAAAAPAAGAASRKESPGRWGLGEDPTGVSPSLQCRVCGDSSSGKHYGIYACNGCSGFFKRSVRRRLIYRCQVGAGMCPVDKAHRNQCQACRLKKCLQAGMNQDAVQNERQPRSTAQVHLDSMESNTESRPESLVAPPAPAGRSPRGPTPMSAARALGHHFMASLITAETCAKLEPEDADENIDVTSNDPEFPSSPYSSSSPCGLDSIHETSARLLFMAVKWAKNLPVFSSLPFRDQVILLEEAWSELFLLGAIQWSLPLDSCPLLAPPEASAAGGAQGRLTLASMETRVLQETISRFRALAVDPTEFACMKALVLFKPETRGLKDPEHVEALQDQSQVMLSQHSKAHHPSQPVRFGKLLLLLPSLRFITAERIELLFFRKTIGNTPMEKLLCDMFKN
Chain of 1-phosphatidylinositol 4,5-bisphosphate phosphodiesterase gamma-1 (P19174 whole entry): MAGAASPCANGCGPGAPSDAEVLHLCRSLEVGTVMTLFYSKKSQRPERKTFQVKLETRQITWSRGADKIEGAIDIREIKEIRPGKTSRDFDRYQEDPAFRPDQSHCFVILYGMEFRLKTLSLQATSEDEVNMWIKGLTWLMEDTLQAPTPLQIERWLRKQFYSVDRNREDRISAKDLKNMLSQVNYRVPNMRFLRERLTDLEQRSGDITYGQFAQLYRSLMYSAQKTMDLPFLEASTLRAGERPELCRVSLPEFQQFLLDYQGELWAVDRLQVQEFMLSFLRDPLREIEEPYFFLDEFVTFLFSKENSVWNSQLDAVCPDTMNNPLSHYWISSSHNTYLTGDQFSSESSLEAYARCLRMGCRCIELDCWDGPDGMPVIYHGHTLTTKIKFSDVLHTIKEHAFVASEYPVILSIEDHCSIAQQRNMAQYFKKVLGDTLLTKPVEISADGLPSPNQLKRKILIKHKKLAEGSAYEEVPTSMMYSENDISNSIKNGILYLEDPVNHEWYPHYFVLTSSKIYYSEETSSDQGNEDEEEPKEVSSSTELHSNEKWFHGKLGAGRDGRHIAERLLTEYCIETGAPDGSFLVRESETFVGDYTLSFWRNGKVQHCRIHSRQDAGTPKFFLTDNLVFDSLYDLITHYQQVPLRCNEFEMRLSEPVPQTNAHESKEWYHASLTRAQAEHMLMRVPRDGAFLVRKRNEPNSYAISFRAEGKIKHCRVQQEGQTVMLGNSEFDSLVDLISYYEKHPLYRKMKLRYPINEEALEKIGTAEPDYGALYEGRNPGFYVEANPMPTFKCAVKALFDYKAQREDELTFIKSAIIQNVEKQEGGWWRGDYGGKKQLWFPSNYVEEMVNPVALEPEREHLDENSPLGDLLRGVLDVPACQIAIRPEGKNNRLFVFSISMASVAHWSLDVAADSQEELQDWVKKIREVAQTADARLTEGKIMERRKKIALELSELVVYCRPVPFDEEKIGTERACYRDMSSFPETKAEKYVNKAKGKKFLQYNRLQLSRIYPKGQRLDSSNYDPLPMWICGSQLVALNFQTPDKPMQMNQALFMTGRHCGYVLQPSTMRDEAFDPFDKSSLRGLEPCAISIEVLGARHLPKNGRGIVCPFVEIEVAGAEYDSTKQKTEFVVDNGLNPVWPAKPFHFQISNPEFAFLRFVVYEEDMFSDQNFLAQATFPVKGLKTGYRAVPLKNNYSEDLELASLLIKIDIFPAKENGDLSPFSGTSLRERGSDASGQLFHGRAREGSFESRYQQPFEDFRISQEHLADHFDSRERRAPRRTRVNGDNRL
Chain of Nonstructural protein 1 (Q194T2 whole entry): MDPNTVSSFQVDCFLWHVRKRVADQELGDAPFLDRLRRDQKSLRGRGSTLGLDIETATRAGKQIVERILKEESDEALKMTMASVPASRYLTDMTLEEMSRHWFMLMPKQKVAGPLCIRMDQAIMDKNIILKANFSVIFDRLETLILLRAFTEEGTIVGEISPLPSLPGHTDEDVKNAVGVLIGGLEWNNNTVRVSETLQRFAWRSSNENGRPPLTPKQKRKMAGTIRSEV

C[C@@H]1CCCCO[C@@H](CN(C)S(=O)(=O)c2ccccc2)[C@H](C)CN([C@H](C)CO)C(=O)c2cc(NC(=O)Nc3ccc(C(F)(F)F)cc3)ccc2O1
AC50 [1]: 54.7 µM (active)
AC50 [2]: 20.2 µM (active)
AC50 [3]: 3.44 µM (active)
AC50 [4]: 28.4 µM (active)
AC50 [5]: 57.1 µM (active)

CCc1cccc2c(C(=O)CN3C(=O)NC(C)(c4cccc5ccccc45)C3=O)c[nH]c12 (stereo not given)
EC50 [6]: 1.75 µM (active)
IC50 [7]: 165 µM (inactive)
EC50 [8]: > 30 µM (not active)

COc1ccc(CNC(=O)c2cc3c(c(-c4cccc(-c5ccc(C#N)cc5)c4)n2)[C@@H](CCO)N([S@+]([O-])C(C)(C)C)C3)cc1
AbsAC35 [9]: 108.86 µM
AbsAC35 [10]: 56.25 µM

Cc1cccc(NC(=O)Cn2c(O)c(N=NC(=O)c3ccccc3O)c3ccccc32)c1
IC50 [11]: 1.99 µM (active)
IC50 [12]: > 123 µM (inactive)
IC50 [13]: > 123 µM (inactive)

Cc1nc(SCC(=O)Nc2nc3ccccc3s2)c(C#N)c(C)c1C
AC50 [14]: > 52 µM (inactive)
AC50 [15]: < 0.068 µM (active)
AC50 [16]: > 70 µM (inactive)
IC50 [17]: > 80 µM (inactive)
AC50 [18]: > 52 µM (inactive)
AC50 [3]: < 0.26 µM (active)
AC50 [19]: 0.0912 µM (active)
AC50 [20]: < 0.135 µM (active)
EC50 [21]: < 0.16 µM (active)
AC50 [22]: < 0.26 µM (active)

CCn1c(S)nnc1-c1csc2c1CCCC2
IC50 [23]: > 39.8 µM (not active)
IC50 [24]: > 122 µM (inactive)
IC50 [25]: 25.2 µM (not active)

C[C@@H]1CN([C@@H](C)CO)C(=O)c2cc(-c3ccncc3)cnc2O[C@H]1CN(C)Cc1ccc(Oc2ccccc2)cc1
IC50 [26]: > 20 µM (inactive)
AC50 [27]: 2.93 µM (active)
AC50 [28]: 15.3 µM (active)

CN1C(=O)/C(=C\c2cc(N=Nc3ccccc3)ccc2O)SC1=S
IC50 [29]: 24.4 µM (inactive)
IC50 [30]: 33.7 µM (inactive)
IC50 [31]: > 80 µM (inactive)
IC50 [32]: 4.51 µM (active)

CCC(=O)N(C)C[C@H]1Oc2cc(-c3ccccc3)ccc2S(=O)(=O)N([C@H](C)CO)C[C@H]1C
AC50 [33]: 4.07 µM (active)

COc1ccccc1N1CCN(C(=O)c2cc(=O)c3cc(C)ccc3o2)CC1
IC50 [34]: > 80 µM (inactive)

CO[C@H]1CN(C)C(=O)c2ccc(NC(=O)c3ccc(-c4ccccc4)cc3)cc2OC[C@@H](C)NC[C@H]1C
AC50 [35]: 15.5 µM (active)
AC50 [36]: 6.23 µM (active)
AC50 [37]: 20.5 µM (active)
AC50 [38]: 22 µM (active)
AC50 [39]: 26.2 µM (active)
